Results published in patent US11261187B2, “Compounds and methods for targeting HSP90” (Duke University, priority 2016, dated 2022).

Columns and labels:
[1] = tested on: eHsp90; experiment: Competition of fluorescent probe binding to eHsp90 on cells by untethered Hsp90 inhibitors; assay type: cell-based; settings: for competition of binding of probe 100 to eHsp90: MDA-MB-468 cells, 100 at 25 μM, 45 min, 1 μM HS-10 or 10 μM PUH71; for blocking of binding of 100 and HS-27 to eHsp90: untethered Hsp90 inhibitors
Experimental: Cells were plated on uncoated 18-mm round coverslips in 12 well plates at 150,000 cells/well and were allowed to adhere overnight. 100, in a stock solution in DMSO, was diluted in serum-free/phenol red-free DMEM. […] The coverslips were washed and mounted onto microscope slides using FluorSave mounting reagent (Millipore, Darmstadt, Germany). Slides were imaged on a Leica SP5 confocal microscope.
(§1) Images were analyzed for fluorescence and puncta using ImageJ software using a non-biased, high-throughput macro. In brief, cells were selected using an expanded selection from the DAPI channel. The regions of interest were then masked, a watershed filter was applied to split adjacent cells into separate cells, and the regions of interest were applied to the 100 channel to measure fluorescence and puncta. High resolution confocal stacks were deconvolved with Hyugen's Deconvolution Software or AiryScan.
(§2) To analyze the internalization of eHsp90 in transformed cells, the 4T1 cell model was utilized.

[2] = Storage stability by LC/MS at a later date; assay type: physicochemical; settings: primarily to the hydride
Experimental: Compound 116 (50 mg, 33 μmol), hexamethylditin (14 mg, 9 μL, 42 μmol) and tetrakis triphenylphosphine palladium(0) (1 mg 1 μmol) were slurried in dioxane (1 mL), purged with nitrogen for 30 m and heated to 100° C. for an hour. The reaction was mixture was adsorbed onto silica gel and chromatographed (50 g C18, 0.2% formic acid to 100% MeOH) to give product 118 (13.9 mg, 27%) as a blue solid. LC/MS gives a single peak with a little shoulder with m/z=785.8 [M+2H]^2+ as part of a cluster typical of Tin compounds.

[3] = tested on: MDA-MB-468 cells; experiment: 100 internalization assay in MDA-MB-468 cells; assay type: cell-based
Experimental: (§3) Cells were plated on uncoated 18-mm round coverslips in 12 well plates at 150,000 cells/well and were allowed to adhere overnight. 100, in a stock solution in DMSO, was diluted in serum-free/phenol red-free DMEM. After drug incubation, the cells were washed twice with ice-cold PBS, fixed with 1% PFA in PBS for 10 min, and stained with 5 μg/mL wheat germ agglutinin-488 (WGA-488, Invitrogen, Waltham, Mass.) and either Hoescht or DAPI. The coverslips were washed and mounted onto microscope slides using FluorSave mounting reagent (Millipore, Darmstadt, Germany). Slides were imaged on a Leica SP5 confocal microscope.
as §1, §2

[4] = tested on: MDA-MB-468 flank tumors; experiment: Whole mouse 3D cryo-imaging of probe biodistribution, MDA-MB-468 flank xenograft; assay type: in vivo
Experimental: All protocols involving the use of mice were approved beforehand by the IACUC at Duke University and were strictly adhered to throughout the studies. A wild-type 3-month-old male SCID mouse with a right flank xenograft with MDA-MB-468 cells was injected with 25 nmol 100 through the tail vein. Six hours later, the mouse was euthanized, prepared according to the instructions from BioInVision, Inc. (Cleveland, Ohio, USA) and shipped for Cryo-Imaging and reconstruction. An EGFP/mCherry dual band filter set was used for imaging (#59022; Chroma Technology Corporation, Bellows Falls, Vt., USA).
The majority of cells are fully differentiated and not actively dividing, whereas some subpopulations of cells are constantly undergoing division and growth, such as the […] layer lining the intestinal tract. To determine if non-tumor cells express/internalize eHsp90, 3D cyrosectioning of mice bearing MDA-MB-468 flank tumors 6 hours post 100 injection was carried out. Probe uptake into the tumor in the live animal was first confirmed in a Licor instrument.
(§4) Whereas fluorophore-tethered probes are useful for detecting and following uptake of tumors on the skin surface in live animals, even with the most sensitive of far red or nIR detectors, due to light scattering, detection of emitted fluorescent light is limited to a depth of few mm of tissue. However, when used in conjunction with live imaging, 3D cryosectioning enables the biodistribution of fluorescent probes to the histological level throughout the body. Following sacrifice the animal was cryopreserved in liquid N2, then longitudinal cryosectioned at 40-μm slices. Each slice was imaged for fluorescence with an mCherry band filter (excitation 550-590 nm, emission 600-670 nm) as well as bright field (all slice image data can be down loaded at https://goo.gl/Z30dXJ). The images were reconstructed to create a 3D fluorescence and bright field images of the entire mouse anatomy (FIG. 4a). This process allowed for the first time a detailed examination of the complete biodistribution of 100 at the histological level in every organ. A control non-treated mouse was also imaged using an EGFP-mCherry dual band filter set. The limits of detection of 100 by fluorescence are estimated to be at <1-2 μmol. In a parallel study, an MS analysis was conducted on specific fluorescent tissues to confirm the presence of 100 parent ion (m/z=660.0 [M+2]2+).

[5] = MS analysis of tissues and urine for 100 parent ion after injection; assay type: in vivo, mouse
From the text: as §4

[6] = tested on: MMTV-neu spontaneous mammary tumor; experiment: Cryo-imaging and histology of MMTV-neu spontaneous mammary tumor mice; assay type: in vivo, mouse
From the text: […] Slices of 5-μm thickness were cut and placed on slides to dry overnight. Slides were then deparaffinized and either H&E stained or rehydrated and stained with DAPI before mounting. Slides were imaged at 20× magnification on a Zeiss Axio Imager widefield fluorescence microscope equipped with a color camera.
To investigate the tumor specificity and eHsp90 internalization in a more relevant model of human breast cancer, the MMTV-neu spontaneous mammary tumor mouse model was used (FIGS. 4c-d). […] Following cryoslicing, each 40 μm slice was imaged for fluorescence and brightfield. […] Previous studies have reported the autofluorescence of Leydig cells in the testes due to the presence of a lipophilic pigment.

[7] = tested on: eHsp90; experiment: Live imaging and tracking of puncta (lattice light sheet microscope); assay type: cell-based; settings: 10 μM 100 competed with 100 μM HS-10
Experimental: Live imaging was also performed on cells treated with 100 alone, 101, or 100 and HS-10, and spots were tracked over time to investigate any differences in puncta movement and size. […] Puncta detected with 100 were competed with HS-10 (FIG. 3d).

[8] = tested on: MDA-MB-468 cells; experiment: Confocal imaging of eHsp90 puncta in probe-treated tumor cells; assay type: cell-based
Experimental: as §3, §1
Using a standard fluorescence curve, the concentration within the puncta of 100 was estimated to be 4.66±0.05 μM. […]

[9] = tested on: non-malignant cells; experiment: Puncta formation on non-malignant cells; assay type: cell-based
Experimental: Using a standard fluorescence curve, the concentration within the puncta of 100 was estimated to be 4.66±0.05 μM. Based on puncta volume and a ratio of 1:1 for 100:Hsp90 (as each monomer of Hsp90 has a single ATP-binding site), the larger puncta are estimated to contain 2659±105 monomers of eHsp90. Accumulation of the puncta intracellularly is time-dependent (FIG. 3b). Formation of the puncta is eHsp90-dependent and not related to any physiochemical properties of the probes themselves. […] This diffusion may be a result of exchange with intracellular ATP or the degradation of the internalized eHsp90. Probe aggregates alone would not be expected to spontaneously dissipate without the addition of some form of organic solvent.

For `CC(C)NCCCn1c(Sc2cc3c(cc2I)OCO3)nc2c(N)ncnc21` [PUH71], the “competition of binding of probe 100 to eHsp90” value [1] was “competed” and the “blocking of binding of 100 and HS-27 to eHsp90” value (“blocking” below) [1] was “blocked”.

With `Cc1nn(-c2ccc(C(N)=O)c(NCCCOCCOCCOCCOCCOCCCN(Cc3ccc(C(=C\C=C4\N(CCCCS(=O)(=O)O)c5ccccc5C4(C)C)/C=C/C4=[N+](CCCCS(=O)(=O)[O-])c5ccccc5C4(C)C)cc3)Cc3ccc[c]([Sn]([CH3])([CH3])[CH3])c3)c2)c2c1C(=O)CC(C)(C)C2` [Compound 118, 4-(2-((E,3Z)-3-(4-(21-((2-carbamoyl-5-(3,6,6-trimethyl-4-oxo-4,5,6,7-tetrahydro-1H-indazol-1-yl)phenyl)amino)-2-(3-(trimethylstannyl)benzyl)-6,9,12,15,18-pentaoxa-2-azahenicosyl)phenyl)-5-((E)-3,3-dimethyl-1-(4-sulfobutyl)indolin-2-ylidene)penta-1,3-dien-1-yl)-3,3-dimethyl-3H-indol-1-ium-1-yl)butane-1-sulfonate] the stability on storage [2] was “significant decomposition”.

With `CC1(C)CC(=O)c2c(C(F)(F)F)nn(-c3ccc(C(N)=O)c(N[C@H]4CC[C@H](O)CC4)c3)c2C1` [SNX2112] the “blocking” value [1] was “blocked”.

For `Cc1nn(-c2ccc(C(N)=O)c(NCCCOCCOCCOCCOCCOCCCNCc3ccc(C(=C\C=C4\N(CCCCS(=O)(=O)O)c5ccccc5C4(C)C)/C=C/C4=[N+](CCCCS(=O)(=O)[O-])c5ccccc5C4(C)C)cc3)c2)c2c1C(=O)CC(C)(C)C2` [Compound 100, 4-(2-((1E,3Z)-3-(4-(21-((2-carbamoyl-5-(3,6,6-trimethyl-4-oxo-4,5,6,7-tetrahydro-1H-indazol-1-yl)phenyl)amino)-6,9,12,15,18-pentaoxa-2-azahenicosyl)phenyl)-5-((Z)-3,3-dimethyl-1-(4-sulfobutyl)indolin-2-ylidene)penta-1,3-dien-1-yl)-3,3-dimethyl-3H-indol-1-ium-1-yl)butane-1-sulfonate], the cell permeability [3] was “not cell permeable”, the clearance from vasculature ([4]; 6 hour time point) was “cleared from the entire vasculature by the 6 hour time point” and the “probe related fluorescence in major organs (heart, lungs, liver, kidney, spleen, brain, skeletal muscle, stomach, skin, thyroid, prostate, fur)” value ([4]; 6 hour time point) was “completely devoid of 100 related fluorescence”. For the same molecule, the “probe in gut wall or endothelial lining of upper intestine” value ([4]; 6 hours post injection, 25 nmol tail vein) was “no evidence of 100 in the gut wall or endothelial lining”, the “uptake in skeletal structures, bone marrow, spinal and synovial fluid” value ([4]; 6 hours, confirmed by MS analysis) was “No uptake” and the “uptake into lymph nodes” value ([4]; SCID mouse, 6 hours) was “uptake of 100 into the lymph nodes”. For the same molecule, the “MS detection of parent ion in intestines” value ([5]; 6 hr post-drug injection) was “did not show the presence of the parent 100 ion”, the “concentration of intact parent molecule in tumor” value ([5]; MS analysis of flank tumor) was ~325 nM (w.w.) and the concentration at 6 h ([5]; SCID, mouse, other: injection, MS analysis of urine, 6 hours) was roughly 50 nM. The “MS detection of parent ion in eyes” value ([5]; mouse, in vivo) was “did not show evidence of the 100 parent ion” and the route of elimination ([5]; mouse, in vivo) was “primarily eliminated intact through the kidney”.

In the case of `Cc1nn(-c2ccc(C(=O)N(C)C)c(NCCCOCCOCCOCCOCCOCCCNCc3ccc(C(=C\C=C4\N(CCCCS(=O)(=O)O)c5ccccc5C4(C)C)/C=C/C4=[N+](CCCCS(=O)(=O)[O-])c5ccccc5C4(C)C)cc3)c2)c2c1C(=O)CC(C)(C)C2` [Compound 101, 4-(2-((1E,3Z)-5-((E)-3,3-dimethyl-1-(4-sulfobutyl)indolin-2-ylidene)-3-(4-(21-((2-(dimethylcarbamoyl)-5-(3,6,6-trimethyl-4-oxo-4,5,6,7-tetrahydro-1H-indazol-1-yl)phenyl)amino)-6,9,12,15,18-pentaoxa-2-azahenicosyl)phenyl)penta-1,3-dien-1-yl)-3,3-dimethyl-3H-indol-1-ium-1-yl)butane-1-sulfonate], the uptake of probe ([3]; MDA-MB-468 cells, dose and time series) is reported as “only weakly internalized at higher concentrations”, the “probe uptake in MMTV-neu mammary tumor” value ([6]; 25 nmol i.v., 6 hours, cryoslicing and histology) is reported as “No uptake was observed” and the “specific drug fluorescence in duct epithelium of tumor cells (histology)” value ([6]; FIG. 5, serial sections, DAPI/Cy5) is reported as “not in the 101-treated mouse”.

In the case of `Cc1nn(-c2ccc(C(N)=O)c(N[C@H]3CC[C@H](O)CC3)c2)c2c1C(=O)CC(C)(C)C2` [HS-10], the “competition of binding of probe 100 to eHsp90” value [1] is reported as “competed”, the “blocking” value [1] is reported as “blocked” and the “competition of puncta detected with 100” value [7] is reported as “competed”.

With `CC(C)c1cc(-c2n[nH]c(=O)n2-c2ccc3c(ccn3C)c2)c(O)cc1O` [Ganetespib] the “blocking” value [1] was “blocked”.

With `CCOCCCNCc1ccc(C(=C\C=C2\N(CCCCS(=O)(=O)O)c3ccccc3C2(C)C)/C=C/C2=[N+](CCCCS(=O)(=O)[O-])c3ccccc3C2(C)C)cc1` [Compound 19, 4-(2-((1E,3Z)-5-((E)-3,3-dimethyl-1-(4-sulfobutyl)indolin-2-ylidene)-3-(4-(((3-ethoxypropyl)amino)methyl)phenyl)penta-1,3-dien-1-yl)-3,3-dimethyl-3H-indol-1-ium-1-yl)butane-1-sulfonate] the “puncta formation when applied to cells” value [8] was “does not form puncta”.

In the case of `Cc1nn(-c2ccc(C(N)=O)c(NCCCOCCOCCOCCOCCOCCCNC(=S)Nc3ccc4c(c3)C(=O)OC43c4ccc(O)cc4Oc4cc(O)ccc43)c2)c2c1C(=O)CC(C)(C)C2` [HS-27, reference compound], the “puncta formation when applied to cells” value [8] is reported as “forms puncta” and the “puncta formation on non-malignant cells” value [9] is reported as “puncta do not form”.
